In ChEMBL document CHEMBL1201862, “PubChem BioAssay data set” (2004):
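Method: 48-hour compound exposure of cells in 96-well plates, five concentrations, linear interpolation of endpoints. At the GI50, growth is halved.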 The source made the active and inactive calls. Cut-off read from the data, not from the text of the source: active = GI50 up to about 1.1 µM and inactive = higher.

Tests used:
Test in all cases: DTP human tumour cell line panel, 48 h
A498 = tested on: A498
BT-549 = tested on: BT-549
CCRF-CEM = tested on: CCRF-CEM
EKVX = tested on: EKVX
HL-60 = tested on: HL-60
HOP-62 = tested on: HOP-62
HT-29 = tested on: HT-29
Hs-578T = tested on: Hs-578T
MDA-N = tested on: MDA-N
OVCAR-8 = tested on: OVCAR-8
SK-MEL-2 = tested on: SK-MEL-2
T47D = tested on: T47D
TK-10 = tested on: TK-10
UO-31 = tested on: UO-31
HOP-92 = tested on: HOP-92
LOX IMVI = tested on: LOX IMVI
Malme-3M = tested on: Malme-3M
OVCAR-4 = tested on: OVCAR-4
SK-OV-3 = tested on: SK-OV-3
U-251 = tested on: U-251

Compound | GI50 (A498) | GI50 (BT-549) | GI50 (CCRF-CEM) | GI50 (EKVX) | GI50 (HL-60) | GI50 (HOP-62) | GI50 (HT-29) | GI50 (Hs-578T) | GI50 (MDA-N) | GI50 (OVCAR-8) | GI50 (SK-MEL-2) | GI50 (T47D) | GI50 (TK-10) | GI50 (UO-31) | GI50 (HOP-92) | GI50 (LOX IMVI) | GI50 (Malme-3M) | GI50 (OVCAR-4) | GI50 (SK-OV-3) | GI50 (U-251)
CCOC(=O)c1c(NC(=O)c2cccs2)sc2c1CCC2 | > 100 µM (inactive) | > 100 µM (inactive) | > 100 µM (inactive) | > 100 µM (inactive) | > 100 µM (inactive) | > 100 µM (inactive) | > 100 µM (inactive) | > 100 µM (inactive) | > 100 µM (inactive) | > 100 µM (inactive) | > 100 µM (inactive) | > 100 µM (inactive) | > 100 µM (inactive) | > 100 µM (inactive) | – | – | – | – | – | –
O=C1CCCC1C(=O)Nc1ccc2ccccc2c1 (stereo not given) | > 100 µM (inactive) | > 100 µM (inactive) | 57 µM (inactive) | 32.1 µM (inactive) | 35.6 µM (inactive) | > 100 µM (inactive) | 55.7 µM (inactive) | – | > 100 µM (inactive) | > 100 µM (inactive) | > 100 µM (inactive) | 62.5 µM (inactive) | > 100 µM (inactive) | > 100 µM (inactive) | > 100 µM (inactive) | > 100 µM (inactive) | > 100 µM (inactive) | > 100 µM (inactive) | > 100 µM (inactive) | > 100 µM (inactive)
COc1cc(/C=C2\N=C(c3ccccc3)N(c3nc4ccccc4s3)C2=O)cc(OC)c1OC | 52.7 µM (inactive) | 17.5 µM (inactive) | – | 21.8 µM (inactive) | 60.5 µM (inactive) | 24.4 µM (inactive) | 26.9 µM (inactive) | 17.3 µM (inactive) | 15.3 µM (inactive) | 31 µM (inactive) | 90.8 µM (inactive) | 28.9 µM (inactive) | > 100 µM (inactive) | 58.5 µM (inactive) | 26.2 µM (inactive) | 36.4 µM (inactive) | – | 23.9 µM (inactive) | – | 26.1 µM (inactive)
O=C(O)C(C(C(=O)O)P(=O)(O)O)P(=O)(O)O (stereo not given) | > 100 µM (inactive) | > 100 µM (inactive) | > 100 µM (inactive) | > 100 µM (inactive) | > 100 µM (inactive) | – | > 100 µM (inactive) | > 100 µM (inactive) | > 100 µM (inactive) | > 100 µM (inactive) | > 100 µM (inactive) | – | > 100 µM (inactive) | > 100 µM (inactive) | 86.1 µM (inactive) | > 100 µM (inactive) | > 100 µM (inactive) | > 100 µM (inactive) | > 100 µM (inactive) | > 100 µM (inactive)
N#CSC#CCCC#CSC#N | 20 µM (inactive) | 21.7 µM (inactive) | 3.1 µM (inactive) | 17.7 µM (inactive) | > 100 µM (inactive) | 19.3 µM (inactive) | 21.3 µM (inactive) | 23.5 µM (inactive) | 18.2 µM (inactive) | 25.4 µM (inactive) | 20.3 µM (inactive) | – | 17.9 µM (inactive) | 18 µM (inactive) | 17.5 µM (inactive) | 18.7 µM (inactive) | 17.9 µM (inactive) | 27.1 µM (inactive) | 16.1 µM (inactive) | 16.9 µM (inactive)
N#CCc1nc(C#N)c(N)o1 | > 100 µM (inactive) | > 100 µM (inactive) | > 100 µM (inactive) | – | – | > 100 µM (inactive) | > 100 µM (inactive) | > 100 µM (inactive) | > 100 µM (inactive) | > 100 µM (inactive) | > 100 µM (inactive) | > 100 µM (inactive) | > 100 µM (inactive) | > 100 µM (inactive) | > 100 µM (inactive) | – | < 0.01 µM (active) | > 100 µM (inactive) | > 100 µM (inactive) | > 100 µM (inactive)
O=Cc1cc2c(cc1-c1c(C=O)ccc3c1OCO3)OCO2 | – | > 10 µM (inactive) | > 10 µM (inactive) | – | > 10 µM (inactive) | > 10 µM (inactive) | > 10 µM (inactive) | > 10 µM (inactive) | > 10 µM (inactive) | > 10 µM (inactive) | – | > 10 µM (inactive) | > 10 µM (inactive) | – | > 10 µM (inactive) | > 10 µM (inactive) | > 10 µM (inactive) | > 10 µM (inactive) | > 10 µM (inactive) | > 10 µM (inactive)
COC(=O)/C=C(\C)CC/C=C(\C)CCC(O)C(C)(C)O (stereo not given) | 33 µM (inactive) | 29 µM (inactive) | 15.5 µM (inactive) | 41.9 µM (inactive) | 15.6 µM (inactive) | 21.8 µM (inactive) | 31.4 µM (inactive) | 28.6 µM (inactive) | 23.8 µM (inactive) | 25.1 µM (inactive) | 15.9 µM (inactive) | – | 45 µM (inactive) | 39.2 µM (inactive) | 29.9 µM (inactive) | 16.2 µM (inactive) | 17.5 µM (inactive) | 48.5 µM (inactive) | > 100 µM (inactive) | 28.2 µM (inactive)
CNC1=CC(=O)C2=C(C1=O)[C@H]1CC[C@]3(C)C(=O)CC[C@H]3[C@@H]1CC2 | 22.2 µM (inactive) | 16.4 µM (inactive) | 9.18 µM (inactive) | 15.3 µM (inactive) | – | 15.2 µM (inactive) | – | – | 8.17 µM (inactive) | 9.71 µM (inactive) | 2.63 µM (inactive) | 18.9 µM (inactive) | 62.4 µM (inactive) | 18.8 µM (inactive) | 12 µM (inactive) | 4.54 µM (inactive) | – | 9.38 µM (inactive) | 43.6 µM (inactive) | 21.8 µM (inactive)
Cc1c2ccccc2c(/C=N/NC(=O)CSCC(=O)N/N=C/c2c3ccccc3c(C)c3ccccc23)c2ccccc12 | 21.7 µM (inactive) | 40.7 µM (inactive) | 34.2 µM (inactive) | > 59 µM (inactive) | > 68.7 µM (inactive) | 12.9 µM (inactive) | > 39.3 µM (inactive) | 46 µM (inactive) | – | 16.2 µM (inactive) | > 78.3 µM (inactive) | > 25.6 µM (inactive) | 29 µM (inactive) | > 84.1 µM (inactive) | 13.2 µM (inactive) | > 57.4 µM (inactive) | 37 µM (inactive) | > 42.1 µM (inactive) | > 100 µM (inactive) | 29.6 µM (inactive)
Cc1c(NC(=O)CSC(=S)N2CCN(Cc3ccccc3)CC2)c(=O)n(-c2ccccc2)n1C | – | > 100 µM (inactive) | > 100 µM (inactive) | > 100 µM (inactive) | – | > 100 µM (inactive) | > 100 µM (inactive) | > 100 µM (inactive) | > 100 µM (inactive) | > 100 µM (inactive) | > 100 µM (inactive) | > 100 µM (inactive) | > 100 µM (inactive) | > 100 µM (inactive) | – | > 100 µM (inactive) | > 100 µM (inactive) | > 100 µM (inactive) | > 100 µM (inactive) | > 100 µM (inactive)
Cc1nn(C(=O)c2ccncc2)c2c1C(c1ccc(Cl)cc1)SC(=N)N2 (stereo not given) | – | > 10 µM (inactive) | > 10 µM (inactive) | > 10 µM (inactive) | > 10 µM (inactive) | > 10 µM (inactive) | > 10 µM (inactive) | > 10 µM (inactive) | > 10 µM (inactive) | > 10 µM (inactive) | > 10 µM (inactive) | > 10 µM (inactive) | > 10 µM (inactive) | – | > 10 µM (inactive) | > 10 µM (inactive) | > 10 µM (inactive) | > 10 µM (inactive) | – | –
CC(=O)OCC(Br)C1(C)CCC(C(C)(C)Br)O1 (stereo not given) | > 100 µM (inactive) | 79.6 µM (inactive) | > 100 µM (inactive) | > 100 µM (inactive) | > 100 µM (inactive) | > 100 µM (inactive) | 62.7 µM (inactive) | 17.9 µM (inactive) | 44.7 µM (inactive) | – | 39.1 µM (inactive) | – | > 100 µM (inactive) | 39.6 µM (inactive) | 20.6 µM (inactive) | 23.1 µM (inactive) | 83.6 µM (inactive) | 11.2 µM (inactive) | > 100 µM (inactive) | 73.5 µM (inactive)
COc1cccc(-c2cc(O)c3cc(N4CCOCC4)ccc3n2)c1 | – | 0.964 µM (active) | 0.0288 µM (active) | 0.363 µM (active) | 0.0194 µM (active) | 0.0586 µM (active) | – | 0.0184 µM (active) | 0.0069 µM (active) | 0.0375 µM (active) | 0.0313 µM (active) | > 10 µM (inactive) | 4.26 µM (inactive) | 0.0372 µM (active) | 0.0376 µM (active) | 0.049 µM (active) | 0.0131 µM (active) | 6.76 µM (inactive) | – | 0.037 µM (active)
C[C@@H]1CC[C@H]2C(C)(C)[C@H]3C[C@@]12CC[C@@]3(C)O [CEDROL] | > 100 µM (inactive) | > 100 µM (inactive) | > 100 µM (inactive) | > 100 µM (inactive) | 18.7 µM (inactive) | > 100 µM (inactive) | 36 µM (inactive) | > 100 µM (inactive) | > 100 µM (inactive) | > 100 µM (inactive) | > 100 µM (inactive) | > 100 µM (inactive) | > 100 µM (inactive) | > 100 µM (inactive) | 72.6 µM (inactive) | > 100 µM (inactive) | – | > 100 µM (inactive) | > 100 µM (inactive) | > 10 µM (inactive)
CCCCCC/C=C\CCCCCCCCCc1cccc(O)c1C(=O)O [GINKGOLIC ACID 17:1] | > 100 µM (inactive) | > 100 µM (inactive) | 99.1 µM (inactive) | > 100 µM (inactive) | > 100 µM (inactive) | > 100 µM (inactive) | > 100 µM (inactive) | > 100 µM (inactive) | > 100 µM (inactive) | > 100 µM (inactive) | 31.7 µM (inactive) | > 100 µM (inactive) | 65 µM (inactive) | > 100 µM (inactive) | > 100 µM (inactive) | – | > 100 µM (inactive) | > 100 µM (inactive) | > 100 µM (inactive) | > 100 µM (inactive)
